Experimental data as given in publication PMC12047801, “Disrupting the OTUD4-USP7 deubiquitinase complex to suppress herpesvirus replication: a novel antiviral strategy” (PLOS Pathogens, 2025).
Several values for one entry are separate records, joined by “and”; a condition that tells them apart may be missing. Equal values may be shown once. Read-outs that look alike come from different tables or passages of the source. Where a SMILES comes first, the peptide text is derived from it.

Tests used:
KSHV lytic replication = conditions: cited from earlier work
Text: In KSHV-associated cancers, such as Kaposi’s sarcoma (KS), tumor cells predominantly display latent viral infection, while spontaneous reactivation takes place in only 1–3% of infected cells. […] Despite the low percentage of lytic cells, lytic replication plays a critical role in KS pathogenesis. Firstly, the production and release of infectious KSHV particles sustain the latently infected cell population by compensating for episomal loss duri ... || KSHV is the etiological agent of Kaposi’s sarcoma (KS) and primary effusion lymphoma (PEL), and contributes to other malignancies such as multicentric Castleman’s disease (MCD). […] Therefore, KSHV antiviral treatments, including those aimed at inhibiting lytic replication, are actively being developed. […] MMV1645152, identified from the Medicines for Malaria Venture (MMV) Pandemi ...

[1] = test system: MHV68 in Otud4fl/fl Cre-ERT2 mice; type: in vivo; conditions: 5 mg/kg
MHV68 in C57BL/6 mice [2] = experiment: Viral loads/titers in lungs of MHV68-infected C57BL/6 mice; type: in vivo; conditions: 5 days post-infection
[3] = test system: lung inflammation in MHV68-infected C57BL/6 mice; type: in vivo; conditions: Fig 5F, 5 mg/kg, 5 days post-infection, vs vehicle
Procedure: Fig 5 P8-DRI restricts MHV68 Infection in vivo. (A-B) MLF cells were infected with MHV68 (MOI, 0.01) and treated with the indicated peptides (100 µM). Viral titer was determined by plaque assays 48 h post-infection (A). Viral gene expression was assessed by RT-qPCR (B). Data are mean ± s.d. of N = 3 independent biological replicates. […] Data are mean ± s.d. of N = 3 independent biological replicates. (D-E) C57BL/6 mice were intranasally inoculated with MHV68 (4000 PFU) and administrated with p8-DRI (5 mg/kg of body weight) or vehicle control (n = 6 per group). Viral loads in lung tissues were quantified at 5 days post-infection (D). Viral gene expression in lung tissues was measured by RT-qPCR at 5 days post-infection (E). Data are mean ± s.d. of N = 6 independent biological replicates. […] Viral titers in lung tissues were determined at 5 days post-infection (G). Viral gene expression in lung tissues was assessed by RT-qPCR (H). […] (I) H&E staining of lung tissue sections from MHV68-infected Otud4^^fl/fl Cre-ERT2^-/- and Otud4^^fl/fl Cre-ERT2^+/- mice treated with p8-DRI or vehicle control, analyzed at 5 days post-infection. […]
Mouse lung tissue samples were fixed in 10% formalin solution (Sigma) overnight. […] The tissue sections were stained using standard H&E staining protocols and analyzed microscopically.

MHV68 in C57BL/6 mice [4] = type: in vivo; conditions: Fig 5E, 5 mg/kg, 5 days post-infection
Procedure: Fig 5 P8-DRI restricts MHV68 Infection in vivo. (A-B) MLF cells were infected with MHV68 (MOI, 0.01) and treated with the indicated peptides (100 µM). Viral titer was determined by plaque assays 48 h post-infection (A). Viral gene expression was assessed by RT-qPCR (B). Data are mean ± s.d. of N = 3 independent biological replicates. […] Data are mean ± s.d. of N = 3 independent biological replicates. (D-E) C57BL/6 mice were intranasally inoculated with MHV68 (4000 PFU) and administrated with p8-DRI (5 mg/kg of body weight) or vehicle control (n = 6 per group). Viral loads in lung tissues were quantified at 5 days post-infection (D). Viral gene expression in lung tissues was measured by RT-qPCR at 5 days post-infection (E). Data are mean ± s.d. of N = 6 independent biological replicates. (F) H&E staining of lung tissue sections from MHV68-infected mice treated with p8-DRI or vehicle 5 days post-infection. Scale bars, 500 µm (left) and 100 µm (right). […] Viral titers in lung tissues were determined at 5 days post-infection (G). Viral gene expression in lung tissues was assessed by RT-qPCR (H). […] (I) H&E staining of lung tissue sections from MHV68-infected Otud4^^fl/fl Cre-ERT2^-/- and Otud4^^fl/fl Cre-ERT2^+/- mice treated with p8-DRI or vehicle control, analyzed at 5 days post-infection. […]

[5] = test system: lung pathology in MHV68-infected Otud4fl/fl Cre-ERT2 mice; type: in vivo; conditions: for Histological score of lungs: Fig. 5I
USP7-TRAF domain = molecular target: T1, USP7-TRAF domain (Homo sapiens, UniProt Q93009); experiment: Surface plasmon resonance (SPR) analysis of peptide binding to USP7-TRAF
T1 construct: The TRAF domain of human and murine USP7 (1-208 aa) was subcloned into pGEX-6p-1; GST (N); made in house; host or cells: E. coli BL21 (DE3)
T1 sequence (Q93009 1-208): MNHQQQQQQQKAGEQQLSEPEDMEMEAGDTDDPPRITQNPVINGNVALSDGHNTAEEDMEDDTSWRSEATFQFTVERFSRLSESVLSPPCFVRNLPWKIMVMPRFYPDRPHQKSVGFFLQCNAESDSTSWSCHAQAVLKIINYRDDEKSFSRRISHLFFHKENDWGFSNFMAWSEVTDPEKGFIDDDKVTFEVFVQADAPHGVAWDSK

[6] = test system: KSHV lytic reactivation in SLK.iBAC-GFP cells; type: cell-based; conditions: for IC50: Dox + sodium butyrate, mean ± s.d. of N = 3
Procedure: (A) Graphical illustration showing the rationale underlying our peptide design. (B) Surface Plasmon Resonance (SPR) analysis assessing the interaction of the USP7-TRAF domain with the designed peptides p2 and p8. (C) SLK.iBAC-GFP cells were induced with doxycycline (Dox, 1 μg/mL) and sodium butyrate (0.5 mM) in the presence of the Tat fusion peptides (100 μM). All the peptides were fused to an N-terminal Tat47-57 peptide ([…]) via a flexible GG linker. The supernatants containing infectious virions were collected 48 h post-induction and used to infect HEK293T cells. KSHV infectious units were calculated based on the percentage of GFP-positive cells determined by flow cytometry. Data are mean ± s.d. of N = 3 independent biological replicates. (D) SLK.iBAC-GFP cells were induced with doxycycline (Dox, 1 μg/mL) and sodium butyrate (0.5 mM) in the presence of increasing amount of p8 (0, 10, 50, 100 μM). KSHV infectious units were determined 48 h post-induction. Data are mean ± s.d. of N = 3 independent biological replicates. […] Data are mean ± s.d. of N = 3 independent biological replicates. […] Cell viability was assessed by measuring ATP levels 48 h post-induction. Data are mean ± s.d. of N = 3 independent biological replicates.
Peptides p1 to p12 (S1A Fig) were synthesized by Sangon Biotech (Shanghai, China) with 95% purity. The Tat-fused peptides in Fig 1C consisted of the corresponding peptides conjugated to the Tat47-57 peptide ([…]) and two glycine linker residues (QYAOBIO, Suzhou, China). The peptides p8-DRI (nssqsasqnvpprrrqrrkkrGy) and p2-DRI (iesndedavepprrrqrrkkrGy) were synthesized using D-amino acids in a retro-reversed sequence with 95% purity (QYAOBIO, Suzhou, China). The peptide p8-m ([…]) was synthesized with 95% purity (QYAOBIO, Suzhou, China). All the peptides were acetylated at the N-terminus and amidated at the C-terminus to mimic the native peptide structure. The peptides were dissolved in PBS to prepare 1 mM stock solutions for in vitro experiments and 5 mg/ml stock solutions for in vivo experiments.
SLK.iBAC-GFP cells were treated with Dox (1 μg/ml) and sodium butyrate (0.5 mM) to induce lytic reactivation in the presence of indicated peptides (100 μM). The supernatants were collected at the specified time points and used to infect HEK293T cells at appropriate dilutions. The infected cells were collected, fixed, and analyzed by flow cytometry 24 h post-infection. FlowJo 10.0 software was used to analyze the data, and KSHV infectious units were quantified based on the percentage of GFP-positive cells.

[7] = test system: Kaposi's sarcoma (KS) progression; conditions: cited from earlier work
[8] = test system: interaction between OTUD4 and USP7-TRAF; experiment: GST pull-down competition assay, human USP7-TRAF and FLAG-OTUD4; type: binding; conditions: 100 μM, 4 h

For `Cc1c(O)cccc1C(=O)N[C@@H](CSc1ccccc1)[C@H](O)CN1C[C@H]2CCCC[C@H]2C[C@H]1C(=O)NC(C)(C)C` [Nelfinavir], the “Inhibition of KSHV virion production (in words)” value (KSHV lytic replication) is listed as “prevents mature virion production”.
For `Nc1nc(O)c(Br)c(-c2cccc(Cl)c2)n1` [MMV1645152], the “Inhibition of KSHV lytic replication (in words)” value (KSHV lytic replication) is listed as “effectively blocking KSHV lytic replication”.
In the case of `CC(=O)N[C@H](CC(N)=O)C(=O)N[C@H](CO)C(=O)N[C@H](CO)C(=O)N[C@H](CCC(N)=O)C(=O)N[C@H](CO)C(=O)N[C@H](C)C(=O)N[C@H](CO)C(=O)N[C@H](CCC(N)=O)C(=O)N[C@H](CC(N)=O)C(=O)N[C@@H](C(=O)N1CCC[C@@H]1C(=O)N1CCC[C@@H]1C(=O)N[C@H](CCCNC(=N)N)C(=O)N[C@H](CCCNC(=N)N)C(=O)N[C@H](CCCNC(=N)N)C(=O)N[C@H](CCC(N)=O)C(=O)N[C@H](CCCNC(=N)N)C(=O)N[C@H](CCCNC(=N)N)C(=O)N[C@H](CCCCN)C(=O)N[C@H](CCCCN)C(=O)N[C@H](CCCNC(=N)N)C(=O)NCC(=O)N[C@H](Cc1ccc(O)cc1)C(N)=O)C(C)C` [p8-DRI] (HELM PEPTIDE1{[ac].[dN].[dS].[dS].[dQ].[dS].[dA].[dS].[dQ].[dN].[dV].[dP].[dP].[dR].[dR].[dR].[dQ].[dR].[dR].[dK].[dK].[dR].G.[dY].[am]}$$$$V2.0), the “Antiviral effect in OTUD4-deficient mice (in words)” value ([1]; Figs 5G-5I, Otud4fl/fl Cre-ERT2+/- + tamoxifen) is reported as “abolished in OTUD4-deficient mice”, the “Viral titers in lungs of OTUD4-replete mice (in words)” value ([1]; Otud4fl/fl Cre-ERT2-/-, vs vehicle) is reported as “lower viral titers in lung tissues” and the “Viral titers in lung tissues (in words)” value (MHV68 in C57BL/6 mice [2]; Fig 5D, 5 mg/kg, vs vehicle) is reported as “lower viral titers in lung tissues”. The “Viral loads in lung tissues” value (MHV68 in C57BL/6 mice [2]; Fig. 5D, 5 mg/kg p8-DRI, MHV68 4000 PFU intranasal, single animals, one line per mouse (n = 6)) was 12.8424 and 18.8481 and 2.1041 and 7.7972 and 13.617 and 0.6389, the “Lung inflammation and immune cell infiltration (in words)” value [3] was “less inflammation and immune cell infiltration in the lungs” and the “MHV68 viral gene transcription (ORF50, ORF9, ORF25) in lungs (in words)” value (MHV68 in C57BL/6 mice [4]) was “significantly reduced”. The “Histological score of lungs” value ([5]; OTUD4 KO mice, replicate 1) was 1, the “Histological score of lungs” value ([5]; OTUD4 KO mice, replicate 2) was 1 and the “Histological score of lungs” value ([5]; OTUD4 KO mice, replicate 3) was 1. The “Histological score of lungs” value ([5]; OTUD4 KO mice, replicate 4) was 2, the “Histological score of lungs” value ([5]; OTUD4 KO mice, replicate 5) was 3 and the “Histological score of lungs” value ([5]; OTUD4 WT mice, replicate 1) was 1. The “Histological score of lungs” value ([5]; OTUD4 WT mice, replicate 2) was 1, the “Histological score of lungs” value ([5]; OTUD4 WT mice, replicate 3) was 1 and the “Histological score of lungs” value ([5]; OTUD4 WT mice, replicate 4) was 2. For the same compound, the “Histological score of lungs” value ([5]; OTUD4 WT mice, replicate 5) was 3, the “Viral pathology in OTUD4-replete mice (in words)” value ([5]; Otud4fl/fl Cre-ERT2-/-, 5 mg/kg, vs vehicle) was “reduced viral pathology” and the “Binding affinity for USP7-TRAF relative to p8 (in words)” value (USP7-TRAF domain; N = 3 (S5H Fig)) was “remained comparable to that of p8”. It also gave an IC50 ([6]; SLK.iBAC-GFP cells) of 9.23 ± 1.29 µM.
`CC[C@@H](C)[C@@H](NC(C)=O)C(=O)N[C@H](CCC(=O)O)C(=O)N[C@H](CO)C(=O)N[C@H](CC(N)=O)C(=O)N[C@H](CC(=O)O)C(=O)N[C@H](CCC(=O)O)C(=O)N[C@H](CC(=O)O)C(=O)N[C@H](C)C(=O)N[C@@H](C(=O)N[C@H](CCC(=O)O)C(=O)N1CCC[C@@H]1C(=O)N1CCC[C@@H]1C(=O)N[C@H](CCCNC(=N)N)C(=O)N[C@H](CCCNC(=N)N)C(=O)N[C@H](CCCNC(=N)N)C(=O)N[C@H](CCC(N)=O)C(=O)N[C@H](CCCNC(=N)N)C(=O)N[C@H](CCCNC(=N)N)C(=O)N[C@H](CCCCN)C(=O)N[C@H](CCCCN)C(=O)N[C@H](CCCNC(=N)N)C(=O)NCC(=O)N[C@H](Cc1ccc(O)cc1)C(N)=O)C(C)C` [p2-DRI] (HELM PEPTIDE1{[ac].[dI].[dE].[dS].[dN].[dD].[dE].[dD].[dA].[dV].[dE].[dP].[dP].[dR].[dR].[dR].[dQ].[dR].[dR].[dK].[dK].[dR].G.[dY].[am]}$$$$V2.0) gave an IC50 ([6]; SLK.iBAC-GFP cells) of 67.4 ± 34.1 µM.
For `Nc1nc(O)c2ncn(COC(CO)CO)c2n1` [Ganciclovir], the “Prevention of KS progression (in words)” value [7] is listed as “remarkable efficacy in randomized clinical trials for preventing KS progression” and the “Inhibition of KSHV lytic replication (in words)” value (KSHV lytic replication; nucleoside analogue) is listed as “inhibits KSHV lytic replication”.
In the case of `CCc1cc(-c2n[nH]c(C)c2-c2ccc3c(c2)OCCO3)c(O)cc1O` [CCT018159], the “Inhibition of KSHV lytic replication and virion production (in words)” value (KSHV lytic replication; UAP56 ATPase inhibitor) is listed as “successfully blocks KSHV lytic replication and infectious virion production”.
With Ac-YGRKKRRQRRRGGEVADEDNSEI-NH2 [p2] the “Binding to the USP7-TRAF domain (in words)” value (USP7-TRAF domain) was “specifically bound to the USP7-TRAF domain”, the “Disruption of OTUD4/USP7-TRAF interaction (in words)” value [8] was “failed to disrupt the interaction between USP7-TRAF and OTUD4” and the “IC50, KSHV lytic reactivation (in words)” value ([6]; SLK.iBAC-GFP cells, Tat-fused peptide) was “could not be determined due to its low antiviral activity”. For the same compound, the “Inhibition of KSHV lytic reactivation (in words)” value ([6]; Tat-fused peptides, 100 μM or dose series, 48 h post-induction) was “no significant inhibition”.
